Experimental findings from patent publication US20240165097A1, “PHARMACEUTICAL COMPOSITION FOR THE TREATMENT OF ALZHEIMER'S DISEASE OR DEMENTIA” (Heptares Therapeutics Limited, priority 2021, published 2024) are described below.

In test [1] the test system is patients with mild-to-moderate AD. Description: Example D: Cogstate neuropsychological test battery. Format: in vivo, human. An excerpt: (§1) Exploratory PD effects of HTL0018318 were examined via both behavioural (Cogstate neuropsychological test battery [NTB]) tests of cognitive function and electrophysiological (electroencephalogram [EEG] and evoked response potentials [ERPs]) biomarkers. Further details of each biomarker/test and outcome variables are provided below. Twelve-item neuropsychiatric inventory (NPI-12) scores were used to evaluate neuropsychiatric symptoms.
Exploratory pharmacodynamic endpoints (Cogstate tests and EEG/evoked response potential [ERP] biomarkers) were evaluated at screening (practice sessions) and baseline visits, and on Day 28±1. While this study was not powered to detect PD effects of small to moderate ESs, the study sample size provided approximately 80% power to detect a large ES of 0.97 for these endpoints using a significance level of 0.10.
A Cogstate neuropsychological test battery (NTB; http://www.Cogstate.com/) was administered as a computerised test, with the following cognitive tasks included in the battery. The total duration of the battery was approximately 30-40 minutes: • Identification (IDN)—reaction time (attention) • International shopping list immediate recall (ISL) and international shopping list-delayed recall (ISRL)—number of words recalled (episodic memory/verbal learning) • One back test (ONB)—accuracy and reaction time (working memory/executive function) • Groton maze learning (GML; forward and reverse maze learning)—accuracy (executive function)
The IDN is a measure of choice reaction time. In this task, an event (ie, a card turning face-up) occurs in the centre of the computer screen, and the patient must decide “YES” or “NO” as to whether or not this event meets a predefined and unchanging criterion (is the colour of the card red?). For this test, the primary dependent measure of the study was mean of the log10 transformed reaction times for correct responses.
The ISL and ISRL are a computer controlled verbal learning/episodic memory test. In this test, patients are read a list of 12 words. Each word is a concrete noun and describes an item of food that is found commonly in the culture/society in which testing is occurring. The examiner tells the patients “I am going to read to you a list of items I want you to get from the supermarket/store/market/shop”. After the 12 words have been read, the patient tries to recall as many of the words as they can immediately (ie, ISL immediate recall). Once they can recall no more words, the same list is read a second time with the words in the same order, after the same instruction. The process of reading the list and waiting for responses occurs 3 times. At the completion of the computerised battery (and with a minimum 20-minute delay) the patient is asked to recall as many of the items as they can from the shopping list (ISL delayed recall; ie, ISRL). For both ISL and ISRL tests, the primary dependent measure was number of words recalled.
The ONB memory task is a valid measure of working memory. In this task, the patient is shown a single stimulus in the centre of the computer screen (ie, a card turns face-up). He or she must decide “YES” or “NO” as to whether or not the current card matches the card that was seen on the immediately previous trial. The software measures the speed and accuracy of each response. For this test, the primary dependent measure of the study was arcsine transformation of the proportion of correct responses (i.e. accuracy).
The modified GML evaluates short-term memory. The test begins with a chase task to allow the patient to become familiar with the task context. The patient is shown a 10×10 grid of tiles on a computer touch screen. The patient is instructed to chase a moving tile around the grid. Once the patient understands the rules, he or she can proceed onto the timed chase test, where the patient must chase the target for 30 seconds. For the GML, the patient is shown the same 10×10 grid of tiles on a computer touch screen. […]

Test [2] shares this test system. Description: Example D: twelve-item neuropsychiatric inventory (NPI-12). Type of test: in vivo, human. The method, then:
as §1
Statistical evaluation was performed using Statistical analysis software (SAS®, SAS Institute, Cary, NC). Changes from baseline in vital signs were analysed using a mixed model for repeated measures with fixed effects for baseline, treatment, time-point and treatment by time-point interaction. The exploratory PD endpoints were analysed using an analysis of covariance with change from baseline as the dependent variable, and baseline and treatment as covariates. The least square means (LSM) for each dose (and difference from placebo) are presented with the 90% CI, P-value, and ES. ES was calculated as the LSM difference from placebo divided by the pooled standard deviation. PD data were considered clinically meaningful when P-values were <0.10 and ESs were >0.4 (ie, moderate to large ES).

Each structure is given as a SMILES string.

In the case of `CCOC(=O)N1C2CCC1CC(N1CCC3(CC1)CNC(=O)C3)C2` (centres unmarked) [HTL0018318, ethyl 3-(3-oxo-2,8-diazaspiro[4.5]dec-8-yl)-8-azabicyclo[3.2.1]octane-8-carboxylate], in test [1] (15 mg, Day 28), the “IDN attention (reaction time), ES” value is on record as 0.62 and the “IDN attention (reaction time), LSM difference from placebo” value worked out at 0.11. Also, in test [1] (25 mg, Day 28), the “ISL composite (immediate and delayed recall), LSM difference from placebo” value was found to be 0.21; the “ISL composite, ES” value is recorded as 0.48; the “ISL-delayed recall, ES” value turned out to be 0.49; the “ISL-delayed recall, LSM difference from placebo” value was found to be 0.65. Besides, in test [1] (25 mg, Day 28), the “ISL-immediate recall, ES” value is reported as 0.34 and the “ISL-immediate recall, LSM difference from placebo” value was 1.11 words. Further, the “IDN attention (reaction time)” value in test [1] (5 and 25 mg, Day 28) is reported as “Non-significant, improvements”. Further, the “ONB reaction time or accuracy, GML task (forward or reverse) performance” value in test [1] (any HTL0018318 dose) is given as “no statistically significant differences”. Also, in test [2] (5 mg), the “NPI-12 total score, ES” value is given as -0.73 and the “NPI-12 total score, LSM difference from placebo” value is given as −1.79. For the same molecule, in test [2] (15 mg), the “NPI-12 total score, ES” value is on record as −0.54. In addition, the “NPI-12 total score, ES” value in test [2] (25 mg) was −0.53.
